Tests used:
H1299 cells [1] = experiment: Transwell migration and invasion assay, H1299 cells; format: cell-based, human; conditions: 12 h, knockdown vs Scr
Excerpt: Fig. 2 NatD is required for lung cancer cell migration and invasion in vitro. a Quantitative real-time PCR analysis of NatD mRNA levels normalized to GAPDH in scrambled control cells (Scr) and NatD-KD1 and NatD-KD2 cells. Results are shown as mean ± s.d. from three independent experiments. Two-tailed Student’s t-test was used. **P < 0.01 compared to Scr control. b Western blot analysis of NatD and Nt-ac-H4 protein levels in scrambled, NatD-KD1, and NatD-KD2 cells. GAPDH and histone H4 served as loading controls. […] Wound healing assay results are quantified in the histogram (right panel). […] Cell migration and invasion are expressed as a percentage of control (bottom panel). […]
Fig. 5 Regulation of Slug by NatD is acetyltransferase activity-dependent. a (left) In vitro acetylation assay showing the catalytic activity of NatDΔ and wild-type NatD (CPM, counts per minute). […] (bottom) Histones shown by Coomassie blue staining. d Quantitative real-time PCR analysis of mRNA levels of Slug, E-cadherin, N-cadherin, and Vimentin normalized to GAPDH in H1299 cells overexpressing NatDΔ or wild-type NatD. […] Cell migration and invasion are expressed as a percentage of control (bottom panel). […]
The in vitro viability of H1299 cells was assessed using the Cell Counting Kit-8 (CCK-8, Dojindo, Japan) according to the manufacturer’s protocol. […]

H1299 cells [2] = experiment: Cell growth (CCK-8), H1299 cells; format: cell-based, human; conditions: vs Scr
Method: The in vitro viability of H1299 cells was assessed using the Cell Counting Kit-8 (CCK-8, Dojindo, Japan) according to the manufacturer’s protocol. Flow cytometric analysis of apoptosis was assessed by Annexin V and PI staining using the Annexin V-APC Apoptosis Detection Kit (KeyGEN BioTECH, China) according to the manufacturer’s guide. For cell cycle analysis, cells were harvested and fixed at 4 °C overnight with 70% ethanol. Cells were washed twice with PBS, and their DNA was stained using a Cell Cycle Detection Kit (KeyGEN BioTECH, China). The samples were analyzed by flow cytometry (Becton Dickinson, NJ, USA), and results were analyzed with FlowJo software according to the manufacturer’s instructions. For the wound healing assay, cells were plated to confluence in a 6-well plate, and the cell monolayer was scratched using a pipette tip. Representative photos were taken using a digital camera mounted on an inverted microscope (Olympus) at indicated times. Live cell imaging was performed using the HoloMonitor M4 time-lapse cytometer (Phase Holographic Imaging, Sweden). […]
Supplementary Figure 1. […] (b and c) Representative images from three independent experiments of apoptosis (b) and cell cycle analysis (c) of Scr and NatD-KD H1299 cells analyzed by flow cytometry. […]

Row | Substance | migratory and invasive capabilities (transwell) (H1299 cells [1]) | cell growth rate (H1299 cells [2])
1 | NatD-KD1: Human NatD shRNA KD1: 5′-GATGAAGAAGGTTATGTTA-3′, lentiviral (shRNA, lentiviral) | significantly reduced | grew at a similar rate
2 | NatD-KD2: Human NatD shRNA KD2: 5′-GGTTGAATGTCTCCATTGA-3′, lentiviral (shRNA lentiviral) | significantly reduced | grew at a similar rate
